From publication PMC12472494, “Anticonvulsant Potential of 1-Aryl-6,7-dimethoxy-1,2,3,4-tetrahydroisoquinolines: Insights from Strychnine and Nicotine Models in In Vivo and In Silico Studies” (Pharmaceuticals, 2025)

What was measured:
[1] = test system: strychnine-induced seizures; experiment: Strychnine-induced seizure model; format: in vivo, mice; conditions: for increase of the survival rate of the animals: reference drugs, versus control (100% died); for survival rate of strychnine-poisoned animals: dose not given
From the text: (§1) The anticonvulsant effects of the examined substances were studied in male white mice weighing 18–22 g, divided into the following groups: control (including the strychnine and nicotine groups), carbamazepine group, Convulex group, and experimental groups (one for each tested substance). Simple randomization (“heads or tails” coin toss) was used to assign animals to groups. Each group contained 10 animals. Healthy animals were included in the experiments after a 14-day quarantine period. No animals were excluded from the study. Convulsant agents were administered subcutaneously at doses of 10.0 mg/kg for nicotine (Sigma–Aldrich, Saint Louis, MO, USA) and 1.5 mg/kg for strychnine (Sigma–Aldrich, Saint Louis, MO, USA), 60 min after the oral administration of the test substances at doses ranging from 0.1 to 10 mg/kg. The onset time, duration of tremors and seizures, and survival rate of the animals were recorded. Carbamazepine (Darnitsa, Kiev, Ukraine) at doses of 5.0–10.0 mg/kg and Convulex (valproate) (Gerot Pharmazeutika GmbH, Vienna, Austria) at doses of 75.0–100.0 mg/kg (based on the therapeutic anticonvulsant dose) were used as reference drugs.
(§2) Data were presented as mean ± SD for different groups. Statistical analysis was performed using OriginPro 9.0 (MicroCal Software, Northampton, MA, USA), with p < 0.05 considered statistically significant.

[2] = test system: tremorogenic and convulsive actions of nicotine; experiment: Nicotine-induced tremor and seizure model; format: in vivo, mice; conditions: for survival rate: reference drugs; for responders at 1 mg/kg: po; for survival rate of the animals increased to: at low doses (0.1–5 mg/kg); for activity against tremorogenic and convulsive actions of nicotine versus reference drugs (in words): doses of 0.1–5 mg/kg
From the text: as §1, §2

[3] = parameters: method as in PMID 36677539; conditions: per os; cited from earlier work
[4] = dose 5.0 mg/kg, strychnine 1.5 mg/kg s.c.
[5] = dose 10.0 mg/kg, strychnine 1.5 mg/kg s.c.
[6] = doses of 5–10 mg/kg, versus control
[7] = Mus musculus, sc, read-out: Survival Rate
[8] = dose 5.0 mg/kg, nicotine 10 mg/kg s.c.
[9] = dose 10.0 mg/kg, nicotine 10 mg/kg s.c.
[10] = Mus musculus, oral dose 1.0 mg/kg 60 min before strychnine 1.5 mg/kg s.c., N = 10, read-out: Survival Rate
[11] = oral dose 1.0 mg/kg 60 min before strychnine 1.5 mg/kg s.c., mean ± SD, N = 10
[12] = Mus musculus, read-out: Survival Rate
[13] = oral dose 1.0 mg/kg 60 min before nicotine 10 mg/kg s.c., mean ± SD, N = 10
[14] = dose 75.0 mg/kg, strychnine 1.5 mg/kg s.c.
[15] = dose 100.0 mg/kg, strychnine 1.5 mg/kg s.c.
[16] = doses of 75–100 mg/kg, versus control
[17] = dose 75.0 mg/kg, nicotine 10 mg/kg s.c.
[18] = dose 100.0 mg/kg, nicotine 10 mg/kg s.c.

SMILES	LD50 [3]	responders at 1 mg/kg [1, 10] [%]	Duration of Tremor and Seizures [1, 11] [min]	Latency to Tremor and Seizure Onset [1, 11] [min]	responders at 1 mg/kg [2, 12] [%]	Duration of Seizures [2, 13] [min]	Latency to Seizure Onset [2, 13] [min]	also measured
NC(=O)N1c2ccccc2C=Cc2ccccc21 [Carbamazepine, reference compound]	–	–	–	–	–	–	–	responders at 5 mg/kg ([1]; Mus musculus, sc, dose 5.0 mg/kg, strychnine 1.5 mg/kg s.c., read-out: Survival Rate): 40%; responders at 10 mg/kg ([1]; Mus musculus, sc, dose 10.0 mg/kg, strychnine 1.5 mg/kg s.c., read-out: Survival Rate): 50%; Duration of Tremor and Seizures [1, 4]: 0.43 ± 0.5 min; Latency to Tremor and Seizure Onset [1, 4]: 14.6 ± 1.4 min; Duration of Tremor and Seizures [1, 5]: 0.38 ± 0.8 min; Latency to Tremor and Seizure Onset [1, 5]: 12.6 ± 1.7 min; increase of latency time for seizure onset [1, 6]: 29–49%; reduction of the duration of seizures [1, 6]: 21–37%; increase of the survival rate of the animals [1]: 40–50%; responders at 5 mg/kg [2, 7]: 60%; responders at 10 mg/kg [2, 7]: 80%; Duration of Seizures [2, 8]: 15.2 ± 0.9 min; Latency to Seizure Onset [2, 8]: 1.57 ± 0.07 min; Duration of Seizures [2, 9]: 4.7 ± 0.6 min; Latency to Seizure Onset [2, 9]: 1.5 ± 0.02 min; survival rate [2]: 60–80%
COc1cc2c(cc1OC)C(c1ccccc1)NCC2 (centres unmarked) [Compound 2, 1-Phenyl-6,7-dimethoxy-1,2,3,4-tetrahydroisoquinoline]	273.2 (249.7 ± 296.7) mg/kg	60	0.43 ± 0.9	14.1 ± 1.5	70	3.2 ± 0.6	3.2 ± 0.07	–
COc1cc2c(cc1OC)C(c1ccccc1O)NCC2 (centres unmarked) [Compound 3, 1-(2′-Hydroxyphenyl)-6,7-dimethoxy-1,2,3,4-tetrahydroisoquinoline]	365.3 (326.1 ± 394.5) mg/kg	60	0.29 ± 0.6	14.5 ± 1.7	90	9.0 ± 0.4	2.6 ± 0.08	survival rate of the animals increased to [2]: 90–100%; activity against tremorogenic and convulsive actions of nicotine versus reference drugs (in words) [2]: comparable activity to the reference drugs
COc1cc2c(cc1OC)C(c1ccc(O)cc1)NCC2 (centres unmarked) [Compound 4, 1-(4′-Hydroxyphenyl)-6,7-dimethoxy-1,2,3,4-tetrahydroisoquinoline]	924.2 (893.9 ± 953.9) mg/kg	70	0.57 ± 0.7	14.2 ± 1.8	60	10.5 ± 0.8	1.8 ± 0.05	–
COc1ccc(C2NCCc3cc(OC)c(OC)cc32)cc1 (centres unmarked) [Compound 5, 1-(4′-Methoxyphenyl)-6,7-dimethoxy-1,2,3,4-tetrahydroisoquinoline]	1040.3 (986.0 ± 1079.8) mg/kg	60	0.54 ± 0.7	16.5 ± 1.8	80	10.3 ± 0.6	2.1 ± 0.09	–
COc1cc2c(cc1OC)C(c1ccccc1OC)NCC2 (centres unmarked) [Compound 6, 1-(2′-Methoxyphenyl)-6,7-dimethoxy-1,2,3,4-tetrahydroisoquinoline]	286.7 (256.9 ± 318.7) mg/kg	30	0.50 ± 0.4	15.7 ± 1.7	100	10.5 ± 0.5	2.4 ± 0.03	survival rate of strychnine-poisoned animals [1]: no more than 40%; survival rate of the animals increased to [2]: 90–100%; activity against tremorogenic and convulsive actions of nicotine versus reference drugs (in words) [2]: comparable activity to the reference drugs; survival rate in nicotine-poisoned animals ([2]; from a dose of 0.1 mg/kg): 90%
COc1cc2c(cc1OC)C(c1ccccc1[N+](=O)[O-])NCC2 (centres unmarked) [Compound 7, 1-(2′-Nitrophenyl)-6,7-dimethoxy-1,2,3,4-tetrahydroisoquinoline]	948.9 (916.8 ± 975.8) mg/kg	40	0.32 ± 0.7	14.2 ± 1.7	70	7.6 ± 0.8	2.3 ± 0.07	–
COc1cc2c(cc1OC)C(c1cccc([N+](=O)[O-])c1)NCC2 (centres unmarked) [Compound 8, 1-(3′-Nitrophenyl)-6,7-dimethoxy-1,2,3,4-tetrahydroisoquinoline]	531.4 (501.3 ± 554.1) mg/kg	40	0.56 ± 0.4	15.9 ± 1.7	90	15.5 ± 0.3	2.3 ± 0.08	survival rate of the animals increased to [2]: 90–100%; activity against tremorogenic and convulsive actions of nicotine versus reference drugs (in words) [2]: comparable activity to the reference drugs
COc1cc2c(cc1OC)C(c1ccc([N+](=O)[O-])cc1)NCC2 (centres unmarked) [Compound 9, 1-(4′-Nitrophenyl)-6,7-dimethoxy-1,2,3,4-tetrahydroisoquinoline]	1898.8 (703.5 ± 2273.4) mg/kg	40	0.51 ± 0.5	13.5 ± 1.9	90	16.7 ± 0.4	2.5 ± 0.03	–
COc1cc2c(cc1OC)C(c1ccccc1Cl)NCC2 (centres unmarked) [Compound 10, 1-(2′-Chlorophenyl)-6,7-dimethoxy-1,2,3,4-tetrahydroisoquinoline]	264.2 (224.8 ± 293.9) mg/kg	30	0.60 ± 0.4	17.2 ± 1.7	70	9.2 ± 0.9	2.2 ± 0.03	–
COc1cc2c(cc1OC)C(c1cccc(Cl)c1)NCC2 (centres unmarked) [Compound 11, 1-(3′-Chlorophenyl)-6,7-dimethoxy-1,2,3,4-tetrahydroisoquinoline]	232.4 (211.8 ± 251.1) mg/kg	70	0.46 ± 0.5	15.5 ± 1.2	70	8.3 ± 0.3	2.2 ± 0.07	–
COc1cc2c(cc1OC)C(c1ccc(Cl)cc1)NCC2 (centres unmarked) [Compound 12, 1-(4′-Chlorophenyl)-6,7-dimethoxy-1,2,3,4-tetrahydroisoquinoline]	730.4 (598.2 ± 883.7) mg/kg	20	0.23 ± 0.6	18.5 ± 1.8	70	7.0 ± 0.4	2.1 ± 0.09	–
COc1cc2c(cc1OC)C(c1ccccc1Br)NCC2 (centres unmarked) [Compound 13, 1-(2′-Bromophenyl)-6,7-dimethoxy-1,2,3,4-tetrahydroisoquinoline]	315.8 (281.2 ± 345.2) mg/kg	40	0.31 ± 0.7	10.5 ± 1.3	50	5.0 ± 0.7	2.2 ± 0.03	survival rate of strychnine-poisoned animals [1]: no more than 40%
CCCC(CCC)C(=O)O [Valproate (Convulex), Valproate, reference compound]	–	–	–	–	–	–	–	responders at 75 mg/kg [1, 7]: 40%; responders at 100 mg/kg [1, 7]: 20%; Duration of Tremor and Seizures [1, 14]: 0.34 ± 0.6 min; Latency to Tremor and Seizure Onset [1, 14]: 15.4 ± 1.5 min; Duration of Tremor and Seizures [1, 15]: 0.32 ± 0.4 min; Latency to Tremor and Seizure Onset [1, 15]: 14.3 ± 1.3 min; increase of latency time [1, 16]: 46–57%; reduction of the duration of seizures [1, 16]: 53%; increase of the survival rate of the animals [1]: 20–40%; responders at 75 mg/kg ([2]; Mus musculus, sc, dose 75.0 mg/kg, nicotine 10 mg/kg s.c., read-out: Survival Rate): 90%; responders at 100 mg/kg ([2]; Mus musculus, sc, dose 100.0 mg/kg, nicotine 10 mg/kg s.c., read-out: Survival Rate): 90%; Duration of Seizures [2, 17]: 6.2 ± 0.4 min; Latency to Seizure Onset [2, 17]: 1.2 ± 0.04 min; Duration of Seizures [2, 18]: 10.8 ± 0.8 min; Latency to Seizure Onset [2, 18]: 1.5 ± 0.06 min; survival rate [2]: 90%
